Results from ChEMBL document CHEMBL1127798, “Structure-activity relationships and pH dependence of binding of 8-alkyl-N5-deazapterins to dihydrofolate reductase” (J Med Chem, 1994).

Tests used:
[1] = target: T1, Dihydrofolate reductase (Homo sapiens, UniProt P00374); test: Apparent dissociation constant at pH 6.6 for human dihydrofolate reductase in the absence of cofactor NADPH
T1 sequence (P00374 whole entry): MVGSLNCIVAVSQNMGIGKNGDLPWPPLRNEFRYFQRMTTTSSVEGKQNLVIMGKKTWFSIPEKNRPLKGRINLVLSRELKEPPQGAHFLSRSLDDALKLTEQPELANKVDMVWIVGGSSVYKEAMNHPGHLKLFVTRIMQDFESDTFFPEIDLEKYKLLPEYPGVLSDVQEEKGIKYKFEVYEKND

[2] = target: T1, Dihydrofolate reductase; test: Apparent dissociation constant at pH 6.6 for human dihydrofolate reductase in the presence of cofactor NADPH
[3] = target: T1, Dihydrofolate reductase; test: Tested for the apparent dissociation constant for binding of compound to binary NADPH complex with human dihydrofolate reductase using equation 11
[4] = target: T1, Dihydrofolate reductase; test: Tested for the apparent dissociation constant for binding of compound to binary NADPH complex with human dihydrofolate reductase using equation 16
[5] = target: T1, Dihydrofolate reductase; test: Tested for the apparent dissociation constant for binding of compound to binary NADPH complex with human dihydrofolate reductase using equation 4
[6] = target: T1, Dihydrofolate reductase; test: Tested for the apparent dissociation constant for binding of compound to ternary NADPH complex with human dihydrofolate reductase using equation 11
[7] = target: T1, Dihydrofolate reductase; test: Tested for the apparent dissociation constant for binding of compound to ternary NADPH complex with human dihydrofolate reductase using equation 4
[8] = target: T1, Dihydrofolate reductase; test: Tested for the apparent dissociation constant for binding of compound to binary NADPH complex with human dihydrofolate reductase using equations 11 and 12
[9] = target: T1, Dihydrofolate reductase; test: Tested for the apparent dissociation constant for binding of compound to ternary NADPH complex with human dihydrofolate reductase using equations 15 and 16

| Kd [1] [µM] | Kd [2] [µM] | Kd [3] [µM] | Kd [4] [µM] | Kd [5] [µM] | Kd [6] [µM] | Kd [7] [µM] | Kd [8] [µM] | Kd [9] [µM] | Compound |
| --- | --- | --- | --- | --- | --- | --- | --- | --- | --- |
| 34 | 1.9 | – | – | – | – | – | – | – | CC(C)N1C=CC=C2C(=O)NC(N)N=C21 (stereo unspecified) |
| 130 | 16 | – | – | – | – | – | – | – | CCN1C=C(C)C=C2C(=O)NC(N)N=C21 (stereo unspecified) |
| 60 | 13 | – | – | – | – | – | – | – | CCN1C=CC=C2C(=O)NC(N)N=C21 (stereo unspecified) |
| 1.7 | 0.7 | – | – | – | – | – | – | – | NC1N=C2C(=CC=CN2Cc2ccccc2)C(=O)N1 (stereo unspecified) |
| 3.4 | 2 | 2.7 | 2.8 | 0.0005 | 0.45 | 0.0006 | 1.2 | 1 | CCCN1C(C)=CC=C2C(=O)NC(N)N=C21 (stereo unspecified) |
| 12 | 4 | 6.5 | 2.1 | 0.0207 | 0.83 | 0.0026 | 5.8 | 1.7 | CCCN1C=CC=C2C(=O)NC(N)N=C21 (stereo unspecified) |
| 108 | 4.6 | – | – | – | – | – | – | – | CCCN1C=C(C)C=C2C(=O)NC(N)N=C21 (stereo unspecified) |
| 1.8 | 0.7 | – | – | – | – | – | – | – | CC1=C2C(=O)NC(N)N=C2N(CCC(C)C)C=C1 (stereo unspecified) |
| 2.4 | 0.08 | 3 | 2.2 | 0.0002 | 0.03 | 0.0001 | 2.6 | 0.057 | CC1=C2C(=O)NC(N)N=C2N(CC(C)C)C=C1 (stereo unspecified) |
| 60 | 18 | – | – | – | – | – | – | – | CC1=CN(C(C)C)C2=NC(N)NC(=O)C2=C1 (stereo unspecified) |
| 2.2 | 0.6 | – | – | – | – | – | – | – | CC(C)CN1C=CC=C2C(=O)NC(N)N=C21 (stereo unspecified) |
| 21 | 2.9 | – | – | – | – | – | – | – | CC1=CC=C2C(=O)NC(N)N=C2N1C (stereo unspecified) |
| 21 | 5.1 | – | – | – | – | – | – | – | CC1=C2C(=O)NC(N)N=C2N(C)C=C1 (stereo unspecified) |
| 31 | 0.5 | – | – | – | – | – | – | – | CC1=CN(C)C2=NC(N)NC(=O)C2=C1 (stereo unspecified) |

| Compound | Kd [1] [µM] | Kd [2] [µM] | Kd [3] [µM] | Kd [4] [µM] | Kd [5] [µM] | Kd [6] [µM] | Kd [7] [µM] | Kd [8] [µM] | Kd [9] [µM] |
| --- | --- | --- | --- | --- | --- | --- | --- | --- | --- |
| CN1C=CC=C2C(=O)NC(N)N=C21 (stereo unspecified) | 118 | 21 | – | – | – | – | – | – | – |
